Measured values reported in patent publication US20240417411A1, “COMPOUNDS AND METHODS FOR TREATMENT OF VIRAL INFECTIONS” (priority 2023, published 2024).
Where a name gives a salt, the structure may show the parent alone. Read-outs that look alike come from different tables or passages of the source.

Assays:
SARS-CoV2-NLuc = experiment: microbe, parasite or virus in culture; type: cell-based, SARS Coronavirus 2; details: Severe acute respiratory syndrome coronavirus 2, 48 h, read-out: SARS-CoV2 EC50 (nM)
RSV-Luc5 = experiment: microbe, parasite or virus in culture; type: cell-based; details: human respiratory syncytial virus, NHBE, 72 h, read-out: RSV NHBE EC50 (nM)
in vitro [1] = type: cell-based; details: human
In short: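 Uninfected MT4 cells cultured with compound 4–5 days at 37 °C, equilibrated to 25 °C, and viability read by CellTiter-Glo luminescence. Untreated and 2 μM puromycin-treated cells defined 100% and 0% viability; CC50, the concentration reducing viability by 50%, from non-linear regression.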

in vitro [2] = type: in vitro ADME; details: human, s9, pH 7.4
In short: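 Test compounds at 2 μM final were incubated in a GI S9 reaction mixture, reactions being started by substrate addition. Diluted supernatants were quantified by LC/MS on a Q-Exactive using analyte/internal standard peak area ratios, with 0.1% formic acid water/acetonitrile gradient elution and 5 ppm mass tolerance.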

[3] = 2 μM
[4] = test system: Caco-2 cells (clone C2BBe1); details: human
in vitro [5] = details: human, plasma

Structure (SMILES)	EC50 (SARS-CoV2-NLuc)	EC50 (RSV-Luc5)	CC50 (in vitro [1])	half-life at 2 μM (in vitro [2])	Human Plasma T1/2 [3]	Caco2 A to B ([4]; Caco-2)	Caco2 B to A ([4]; Caco-2)	Caco2 A to B ([4]; Caco-2, 2 h)	Caco2 B to A ([4]; Caco-2, 2 h)	half-life at 2 μM (in vitro [5])	half-life (in vitro [5])
CC(C)OC(=O)OC[C@H]1O[C@@](C#N)(c2ccc3c(N)ncnn23)[C@@H]2OC(=O)CCCCCC(=O)O[C@@H]21 [Compound C6, ((9aR,10R,12R,12aR)-12-(4-aminopyrrolo[2,1-f][1,2,4]triazin-7-yl)-12-cyano-2,8-dioxodecahydro-2H-furo[3,4-b][1,4]dioxacycloundecin-10-yl)methyl isopropyl carbonate]	> 50000 nM	1460 nM	> 50 µM	0.637 min	3 min	11.12	11.68	–	–	–	–
CC(C)OC(=O)OC[C@H]1O[C@@](C#N)(c2ccc3c(N)ncnn23)[C@@H]2OC(=O)CCCCC(=O)O[C@@H]21 [Compound C7, ((8aR,9R,11R,11aR)-11-(4-aminopyrrolo[2,1-f][1,2,4]triazin-7-yl)-11-cyano-2,7-dioxodecahydrofuro[3,4-b][1,4]dioxecin-9-yl)methyl isopropyl carbonate]	> 50000 nM	2730 nM	> 50 µM	0.596 min	3 min	4.31	9.89	–	–	–	–
CC(C)OC(=O)OC[C@H]1O[C@@](C#N)(c2ccc3c(N)ncnn23)[C@@H]2OC(=O)CCOCCC(=O)O[C@@H]21 [Compound C8, ((9aR,10R,12R,12aR)-12-(4-aminopyrrolo[2,1-f][1,2,4]triazin-7-yl)-12-cyano-2,8-dioxooctahydro-2H,6H-furo[3,4-b][1,4,8]trioxacycloundecin-10-yl)methyl isopropyl carbonate]	> 50000 nM	3350 nM	> 50 µM	0.687 min	3 min	1.56	10.63	–	–	–	–
N#C[C@@]1(c2ccc3c(N)ncnn23)O[C@H](COC(=O)OC2CCCC2)[C@H]2OC(=O)CCCC(=O)O[C@H]21 [Compound C20, ((7aR,8R,10R,10aR)-10-(4-aminopyrrolo[2,1-f][1,2,4]triazin-7-yl)-10-cyano-2,6-dioxooctahydro-2H-furo[3,4-b][1,4]dioxonin-8-yl)methyl cyclopentyl carbonate]	11700 nM	27900 nM	> 50 µM	–	3 min	–	–	–	–	–	–
CCC(CC)COC(=O)OC[C@H]1O[C@@](C#N)(c2ccc3c(N)ncnn23)[C@@H]2OC(=O)CCCC(=O)O[C@@H]21 [Compound C21, ((7aR,8R,10R,10aR)-10-(4-aminopyrrolo[2,1-f][1,2,4]triazin-7-yl)-10-cyano-2,6-dioxooctahydro-2H-furo[3,4-b][1,4]dioxonin-8-yl)methyl (2-ethylbutyl) carbonate]	1440 nM	6600 nM	> 50 µM	0.637 min	3 min	–	–	–	–	–	–
N#CC1(COC(=O)OC[C@H]2O[C@@](C#N)(c3ccc4c(N)ncnn34)[C@@H]3OC(=O)CCCC(=O)O[C@@H]32)CC1 [Compound C24, ((7aR,8R,10R,10aR)-10-(4-aminopyrrolo[2,1-f][1,2,4]triazin-7-yl)-10-cyano-2,6-dioxooctahydro-2H-furo[3,4-b][1,4]dioxonin-8-yl)methyl ((1-cyanocyclopropyl)methyl) carbonate]	11500 nM	7760 nM	> 50 µM	0.565 min	3 min	–	–	–	–	–	–
N#C[C@@]1(c2ccc3c(N)ncnn23)O[C@H](COC(=O)OC(CF)CF)[C@H]2OC(=O)CCCC(=O)O[C@H]21 [Compound C27, ((7aR,8R,10R,10aR)-10-(4-aminopyrrolo[2,1-f][1,2,4]triazin-7-yl)-10-cyano-2,6-dioxooctahydro-2H-furo[3,4-b][1,4]dioxonin-8-yl)methyl (1,3-difluoropropan-2-yl) carbonate]	7400 nM	9810 nM	> 50 µM	0.617 min	3 min	–	–	–	–	–	–
CN1[C@@H]2CC[C@H]1C[C@@H](OC(=O)OC[C@H]1O[C@@](C#N)(c3ccc4c(N)ncnn34)[C@@H]3OC(=O)CC(C)(C)CC(=O)O[C@@H]31)C2 [Compound C47, ((7aR,8R,10R,10aR)-10-(4-aminopyrrolo[2,1-f][1,2,4]triazin-7-yl)-10-cyano-4,4-dimethyl-2,6-dioxooctahydro-2H-furo[3,4-b][1,4]dioxonin-8-yl)methyl ((1R,3s,5S)-8-methyl-8-azabicyclo[3.2.1]octan-3-yl) carbonate formate]	> 50000 nM	> 50000 nM	> 50 µM	99.4 min	–	–	–	0.04	5.19	60.2 min	–
COC(=O)[C@H]([C@@H](C)OC(=O)OC[C@H]1O[C@@](C#N)(c2ccc3c(N)ncnn23)[C@@H]2OC(=O)CC(C)(C)CC(=O)O[C@@H]21)N(C)C [Compound C48, (2S,3R)-methyl 3-(((((7aR,8R,10R,10aR)-10-(4-aminopyrrolo[2,1-f][1,2,4]triazin-7-yl)-10-cyano-4,4-dimethyl-2,6-dioxooctahydro-2H-furo[3,4-b][1,4]dioxonin-8-yl)methoxy)carbonyl)oxy)-2-(dimethylamino)butanoate]	> 50000 nM	> 50000 nM	> 50 µM	29.5 min	–	0.22	1.81	–	–	20.3 min	–
CC(C)OC(=O)OC[C@H]1O[C@@](C#N)(c2ccc3c(N)ncnn23)[C@@H]2OC(=O)OCCC=CCCOC(=O)O[C@@H]21 [Compound C52, ((12aR,13R,15R,15aR)-15-(4-aminopyrrolo[2,1-f][1,2,4]triazin-7-yl)-15-cyano-2,11-dioxo-4,5,8,9,12a,13,15,15a-octahydrofuro[3,4-d][1,3,6,8]tetraoxacyclotetradecin-13-yl)methyl isopropyl carbonate]	7100 nM	1600 nM	> 50 µM	0.6 min	–	6.77	11.87	–	–	–	1580 min
CC(C)OC(=O)OC[C@H]1O[C@@](C#N)(c2ccc3c(N)ncnn23)[C@@H]2OC(=O)OCCCCCCOC(=O)O[C@@H]21 [Compound C53, ((12aR,13R,15R,15aR)-15-(4-aminopyrrolo[2,1-f][1,2,4]triazin-7-yl)-15-cyano-2,11-dioxodecahydrofuro[3,4-d][1,3,6,8]tetraoxacyclotetradecin-13-yl)methyl isopropyl carbonate]	9660 nM	1330 nM	> 50 µM	0.691 min	–	9.28	15.92	–	–	317 min	–
CC(=O)OC[C@H]1O[C@@](C#N)(c2ccc3c(N)ncnn23)[C@@H]2OC(=O)CCCC(=O)O[C@@H]21 [Compound C55, ((7aR,8R,10R,10aR)-10-(4-aminopyrrolo[2,1-f][1,2,4]triazin-7-yl)-10-cyano-2,6-dioxooctahydro-2H-furo[3,4-b][1,4]dioxonin-8-yl)methyl acetate]	3300 nM	2070 nM	> 50 µM	–	3 min	–	–	–	–	–	–
CCC(=O)OC[C@H]1O[C@@](C#N)(c2ccc3c(N)ncnn23)[C@@H]2OC(=O)CCCC(=O)O[C@@H]21 [Compound C56, ((7aR,8R,10R,10aR)-10-(4-aminopyrrolo[2,1-f][1,2,4]triazin-7-yl)-10-cyano-2,6-dioxooctahydro-2H-furo[3,4-b][1,4]dioxonin-8-yl)methyl propionate]	4580 nM	2300 nM	> 50 µM	–	3 min	–	–	–	–	–	–
